Assay results taken from US20140357655A1, “SPIROINDOLINE DERIVATIVES AS GONADOTROPIN- RELEASING HORMONE RECEPTOR ANTAGONISTS” (Bayer Intellectual Property GmbH, priority 2012, published 2014).

Target: T1, human GnRH receptor (Homo sapiens, UniProt P30968)
T1 sequence (P30968 1-328): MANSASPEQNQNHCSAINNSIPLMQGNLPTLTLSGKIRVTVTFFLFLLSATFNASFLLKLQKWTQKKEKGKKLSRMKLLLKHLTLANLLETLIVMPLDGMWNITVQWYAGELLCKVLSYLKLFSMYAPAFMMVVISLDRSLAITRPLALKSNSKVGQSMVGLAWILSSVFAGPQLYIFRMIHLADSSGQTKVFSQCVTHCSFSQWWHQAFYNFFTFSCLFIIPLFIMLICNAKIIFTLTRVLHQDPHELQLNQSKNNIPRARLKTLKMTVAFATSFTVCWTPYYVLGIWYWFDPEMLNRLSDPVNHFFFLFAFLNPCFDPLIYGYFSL
Assay: IP-One HTRF assay with buserelin (at EC80) stimulation
Type: cell-based
Conditions: CHO cells stably expressing human GnRH receptor, read-out: Potency in IP-One HTRF assay, given as IC50
How it was run: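 Ten-point duplicate titrations (20 μM to 1 nM) were fitted by 4-parameter model to normalized 665/620 nm HTRF ratios, 0% = no compound, 100% = no agonist. Assay measured IP1 accumulation in human GnRH-R CHO cells stimulated 1 h at 37° C with EC80 buserelin, then lysed 1 h at 22° C.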

| SMILES | IC50 [µM] |
| --- | --- |
| O=C(O)c1cccc(NC(=O)c2ccc3c(c2)C2(CCS(=O)(=O)CC2)C(C2CC2)N3S(=O)(=O)c2ccc(F)cc2)c1 (single isomer, unassigned) [Example 49.2, 3-[({2-cyclopropyl-1-[(4-fluorophenyl)sulfonyl]-1′,1′-dioxido-1,2,2′,3′,5′,6′-hexahydrospiro[indole-3,4′-thiopyran]-5-yl}carbonyl)amino]benzoic acid] | 0.109 |
| COc1cccc(S(=O)(=O)N2c3ccc(C(=O)NCc4ccccc4C(F)(F)F)cc3C3(CCS(=O)(=O)CC3)C2C2CC2)c1 (stereo not drawn) [Example 40, 2-cyclopropyl-1-[(3-methoxyphenyl)sulfonyl]-N-[2-(trifluoromethyl)benzyl]-1,2,2′,3′,5′,6′-hexahydrospiro[indole-3,4′-thiopyran]-5-carboxamide 1′,1′-dioxide] | 0.032 |
| NC(=O)c1ccc(S(=O)(=O)N2c3ccc(C(=O)NCc4ccccc4Cl)cc3C3(CCS(=O)(=O)CC3)C2C2CC2)cc1 (stereo not drawn) [Example 94, 1-[(4-carbamoylphenyl)sulfonyl]-N-(2-chlorobenzyl)-2-cyclopropyl-1,2,2′,3′,5′,6′-hexahydrospiro[indole-3,4′-thiopyran]-5-carboxamide 1′,1′-dioxide] | 0.222 |
| COc1cccc(S(=O)(=O)N2c3ccc(C(=O)NCc4ncccc4Cl)cc3C3(CCS(=O)(=O)CC3)C2C2CC2)c1 (stereo not drawn) [Example 41, N-[(3-chloropyridin-2-yl)methyl]-2-cyclopropyl-1-[(3-methoxyphenyl)sulfonyl]-1,2,2′,3′,5′,6′-hexahydrospiro[indole-3,4′-thiopyran]-5-carboxamide 1′,1′-dioxide] | 0.234 |
| O=C(O)c1cccc(NC(=O)c2ccc3c(c2)C2(CCS(=O)(=O)CC2)C(C2CC2)N3S(=O)(=O)c2cccc(OC(F)F)c2)c1 (single isomer, unassigned) [Example 90.2, 3-{[(2-cyclopropyl-1-{[3-(difluoromethoxy)phenyl]sulfonyl}-1′,1′-dioxido-1,2,2′,3′,5′,6′-hexahydrospiro[indole-3,4′-thiopyran]-5-yl)carbonyl]amino}benzoic acid] | 2.86 |
| COC(=O)c1cccc(NC(=O)c2ccc3c(c2)C2(CCS(=O)(=O)CC2)C(C2CC2)N3S(=O)(=O)c2cccc(OC(F)F)c2)c1 (single isomer, unassigned) [Example 89.1, methyl 3-{[(2-cyclopropyl-1-{[3-(difluoromethoxy)phenyl]sulfonyl}-1′,1′-dioxido-1,2,2′,3′,5′,6′-hexahydrospiro[indole-3,4′-thiopyran]-5-yl)carbonyl]amino}benzoate] | 0.063 |
| O=C(NCc1ccc(F)cc1Cl)c1ccc2c(c1)C1(CCS(=O)(=O)CC1)C(C1CC1)N2S(=O)(=O)c1ccc(F)cc1 (single isomer, unassigned) [Example 16.2, N-(2-chloro-4-fluorobenzyl)-2-cyclopropyl-1-[(4-fluorophenyl)sulfonyl]-1,2,2′,3′,5′,6′-hexahydrospiro[indole-3,4′-thiopyran]-5-carboxamide 1′,1′-dioxide] | 6.84 |
| CN1CCCC1=NS(=O)(=O)c1cccc(NC(=O)c2ccc3c(c2)C2(CCS(=O)(=O)CC2)C(C2CC2)N3S(=O)(=O)c2ccc(C(N)=O)cc2)c1 (stereo not drawn) [Example 95, 1-[(4-carbamoylphenyl)sulfonyl]-2-cyclopropyl-N-{3-[(1-methylpyrrolidin-2-ylidene)sulfamoyl]phenyl}-1,2,2′,3′,5′,6′-hexahydrospiro[indole-3,4′-thiopyran]-5-carboxamide 1′,1′-dioxide] | 0.225 |
| CC1N(S(=O)(=O)c2ccc(F)cc2)c2ccc(C(=O)NCc3ccccn3)cc2C12CCOCC2 (stereo not drawn) [Example 6, 1-[(4-fluorophenyl)sulfonyl]-2-methyl-N-(2-pyridylmethyl)-1,2,2′,3′,5′,6′-hexahydrospiro[indole-3,4′-pyran]-5-carboxamide] | 6.72 |
